Results from ChEMBL document CHEMBL1201862, “PubChem BioAssay data set” (2004).
Counter-ions that a name gives are not always drawn.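 Test compounds were applied to cells in 96-well plates for 48 hours at 5 doses. GI50 marks 50% less growth.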 Active and inactive are the calls of the source. Rule as the data show it: active = GI50 up to about 1.1 µM and inactive = higher.

Assays:
Assay in all cases: growth of human tumour cells (NCI), 48 h
A549 = system: A549
ACHN = system: ACHN
SK-MEL-2 = system: SK-MEL-2
CAKI-1 = system: CAKI-1
SF-295 = system: SF-295
UACC-257 = system: UACC-257
COLO 205 = system: COLO 205
SW-620 = system: SW-620
EKVX = system: EKVX
SF-539 = system: SF-539
OVCAR-4 = system: OVCAR-4
MDA-MB-231 = system: MDA-MB-231
HOP-92 = system: HOP-92
OVCAR-3 = system: OVCAR-3
BT-549 = system: BT-549
A498 = system: A498
U-251 = system: U-251
CCRF-CEM = system: CCRF-CEM
MDA-N = system: MDA-N

Compound	GI50 (A549)	GI50 (ACHN)	GI50 (SK-MEL-2)	GI50 (CAKI-1)	GI50 (SF-295)	GI50 (UACC-257)	GI50 (COLO 205)	GI50 (SW-620)	GI50 (EKVX)	GI50 (SF-539)	GI50 (OVCAR-4)	GI50 (MDA-MB-231)	GI50 (HOP-92)	GI50 (OVCAR-3)	GI50 (BT-549)	GI50 (A498)	GI50 (U-251)	GI50 (CCRF-CEM)	GI50 (MDA-N)
O=CC1C(Cl)=Nc2nc3ccccc3n2C1c1ccccc1 (configuration not stated)	23.8 µM (inactive)	17.4 µM (inactive)	12 µM (inactive)	21.4 µM (inactive)	> 100 µM (inactive)	22.6 µM (inactive)	19.2 µM (inactive)	19.4 µM (inactive)	25.2 µM (inactive)	18.1 µM (inactive)	15.2 µM (inactive)	17.1 µM (inactive)	10.4 µM (inactive)	23.2 µM (inactive)	15.2 µM (inactive)	3.01 µM (inactive)	18.2 µM (inactive)	12.4 µM (inactive)	
O=Cc1cc(C(=O)OCc2ccccc2)n(S(=O)(=O)c2ccccc2)c1	25.8 µM (inactive)	15.6 µM (inactive)	16.8 µM (inactive)	29.4 µM (inactive)	14.4 µM (inactive)	24.7 µM (inactive)	26.1 µM (inactive)		23.3 µM (inactive)	12.7 µM (inactive)	43.5 µM (inactive)	37.7 µM (inactive)		18.7 µM (inactive)	16 µM (inactive)			8.07 µM (inactive)	5.31 µM (inactive)
CC(/C=C1\CCC(CN(C)C)C1=O)c1cccc(Br)c1 (configuration not stated)	31.3 µM (inactive)	13.4 µM (inactive)	16.7 µM (inactive)	8.15 µM (inactive)	22.2 µM (inactive)	17.3 µM (inactive)	17.9 µM (inactive)	8.18 µM (inactive)	20.9 µM (inactive)	18 µM (inactive)	17 µM (inactive)		18.2 µM (inactive)	17 µM (inactive)		26.5 µM (inactive)	18.2 µM (inactive)	2.52 µM (inactive)	
O=C1C(C(O)(C(F)(F)F)C(F)(F)F)CCC1C(O)(C(F)(F)F)C(F)(F)F (configuration not stated)	1.91 µM (inactive)	1.8 µM (inactive)	0.522 µM (active)	0.341 µM (active)	0.849 µM (active)	7.67 µM (inactive)	0.0481 µM (active)	5.89 µM (inactive)	8.13 µM (inactive)	6.82 µM (inactive)	1.18 µM (inactive)	0.746 µM (active)	< 0.01 µM (active)	0.918 µM (active)		0.964 µM (active)	13.5 µM (inactive)	1.15 µM (inactive)	> 36.7 µM (inactive)
C1CSCCSS[C@@H]2CCCCC2SC1 (some centres not stated)	> 100 µM (inactive)				> 100 µM (inactive)	> 100 µM (inactive)	> 100 µM (inactive)	> 100 µM (inactive)	> 100 µM (inactive)	> 100 µM (inactive)	> 100 µM (inactive)	> 100 µM (inactive)	29.2 µM (inactive)	> 100 µM (inactive)	> 100 µM (inactive)		> 100 µM (inactive)	> 100 µM (inactive)	> 100 µM (inactive)
COc1ccc(-c2cc3c(c4cc(OC)ccc24)C(=O)OC3=O)cc1	> 100 µM (inactive)	> 100 µM (inactive)	> 100 µM (inactive)	> 100 µM (inactive)	> 100 µM (inactive)	> 100 µM (inactive)	> 100 µM (inactive)	> 100 µM (inactive)	> 100 µM (inactive)		> 100 µM (inactive)	> 100 µM (inactive)	87.3 µM (inactive)	> 100 µM (inactive)	> 100 µM (inactive)		> 100 µM (inactive)	> 100 µM (inactive)	86.5 µM (inactive)
CC1(C)c2ccccc2C(=O)C12CCC(=O)CC2	> 100 µM (inactive)	> 100 µM (inactive)	> 100 µM (inactive)	> 100 µM (inactive)	> 100 µM (inactive)	> 100 µM (inactive)	> 100 µM (inactive)	> 100 µM (inactive)	> 100 µM (inactive)	> 100 µM (inactive)	> 100 µM (inactive)	> 100 µM (inactive)			> 100 µM (inactive)		> 100 µM (inactive)	> 100 µM (inactive)	> 100 µM (inactive)
CN(C)c1ccc([S+]([O-])Nc2ccccc2)cc1 (configuration not stated)	39 µM (inactive)	29.6 µM (inactive)	35.8 µM (inactive)		48.8 µM (inactive)	27.3 µM (inactive)	24.6 µM (inactive)	51.2 µM (inactive)	32.8 µM (inactive)	> 100 µM (inactive)	45 µM (inactive)	33.3 µM (inactive)		> 100 µM (inactive)	0.52 µM (active)		19.3 µM (inactive)	> 100 µM (inactive)	
COC(=O)c1c(C)cccc1C1CN=NC12Cc1ccc(C)cc1C2=O (configuration not stated)	33.5 µM (inactive)	26.9 µM (inactive)		> 100 µM (inactive)	65.9 µM (inactive)	49.1 µM (inactive)		41 µM (inactive)	26.7 µM (inactive)	47 µM (inactive)	48.8 µM (inactive)	47.1 µM (inactive)	23.8 µM (inactive)	38.6 µM (inactive)		43.6 µM (inactive)	41.9 µM (inactive)	32.4 µM (inactive)	41.4 µM (inactive)
CCOC(=O)CCC(C(=O)OCC)n1nnc2cc(Nc3c(C)[n+]([O-])c4cc(Cl)ccc4[n+]3[O-])ccc21 (configuration not stated)	> 100 µM (inactive)	46.2 µM (inactive)	77.8 µM (inactive)	93.3 µM (inactive)	68.5 µM (inactive)	40.1 µM (inactive)	41.7 µM (inactive)	88.7 µM (inactive)	14.2 µM (inactive)	95.5 µM (inactive)	77.4 µM (inactive)		67.9 µM (inactive)	40.2 µM (inactive)	> 100 µM (inactive)	> 100 µM (inactive)	80.4 µM (inactive)	35.6 µM (inactive)	> 100 µM (inactive)
COC1(C2c3ccccc3CCN2C(=O)OC(C)(C)C)C(=O)C(c2ccccc2)=C1N(C)C (configuration not stated)	27.5 µM (inactive)	33.5 µM (inactive)	27.3 µM (inactive)	45.7 µM (inactive)	30.8 µM (inactive)	40.6 µM (inactive)	18.5 µM (inactive)	37.8 µM (inactive)	40.6 µM (inactive)	19.1 µM (inactive)	46.9 µM (inactive)		44.8 µM (inactive)	27.7 µM (inactive)	27.9 µM (inactive)	25.4 µM (inactive)	37.2 µM (inactive)	38.9 µM (inactive)	21.5 µM (inactive)
N#CC(=N)c1ncn(CCO)c1NC(=O)C(F)(F)F	> 100 µM (inactive)	> 100 µM (inactive)	> 100 µM (inactive)	> 100 µM (inactive)	> 100 µM (inactive)	> 100 µM (inactive)	> 100 µM (inactive)	> 100 µM (inactive)	> 100 µM (inactive)	> 100 µM (inactive)	> 100 µM (inactive)	> 100 µM (inactive)		> 100 µM (inactive)		> 100 µM (inactive)	> 100 µM (inactive)	> 100 µM (inactive)	> 100 µM (inactive)
COc1cc(OCc2ccc3nc(-c4ccccc4)c(Cl)nc3c2)cc(OC)c1OC	> 100 µM (inactive)	32.3 µM (inactive)	45.5 µM (inactive)	24.8 µM (inactive)	37.4 µM (inactive)	> 100 µM (inactive)	> 100 µM (inactive)	> 100 µM (inactive)	59.2 µM (inactive)	31.2 µM (inactive)	> 100 µM (inactive)	39.1 µM (inactive)	8.71 µM (inactive)	> 100 µM (inactive)		32.5 µM (inactive)	16.5 µM (inactive)	> 100 µM (inactive)	> 100 µM (inactive)
N#CC(c1ccc(Cl)cc1)c1cccc(C(C#N)c2ccc(Cl)cc2)n1 (configuration not stated)	10.6 µM (inactive)	10.8 µM (inactive)	13.7 µM (inactive)	16.9 µM (inactive)	8.43 µM (inactive)	14.1 µM (inactive)	14.4 µM (inactive)	46 µM (inactive)	25 µM (inactive)		32.6 µM (inactive)		15.2 µM (inactive)	15.9 µM (inactive)		2.31 µM (inactive)	18.1 µM (inactive)	25.9 µM (inactive)	
COC(=O)C(NC(=O)CSc1nnc(COc2ccc(Cl)cc2)n1-c1ccccc1)C(C)C (configuration not stated)	35.2 µM (inactive)	39.3 µM (inactive)	18.7 µM (inactive)	10.3 µM (inactive)	22 µM (inactive)	17.7 µM (inactive)	23.4 µM (inactive)	56.4 µM (inactive)	23 µM (inactive)	31.2 µM (inactive)	25.6 µM (inactive)	17.4 µM (inactive)	21.6 µM (inactive)	16.5 µM (inactive)		21.2 µM (inactive)	51.4 µM (inactive)	23.4 µM (inactive)	16.2 µM (inactive)
NNC(=O)/C(=C/c1ccc(Cl)c(Cl)c1)NC(=O)c1ccccc1	> 100 µM (inactive)	> 100 µM (inactive)	> 100 µM (inactive)		> 100 µM (inactive)	> 100 µM (inactive)	> 100 µM (inactive)	> 100 µM (inactive)	> 100 µM (inactive)		76 µM (inactive)		40.5 µM (inactive)	> 100 µM (inactive)			> 100 µM (inactive)	92.5 µM (inactive)	
CN(C)CCOC(c1ccccc1)c1ccccc1 [DIPHENHYDRAMINE HYDROCHLORIDE]	> 100 µM (inactive)	> 100 µM (inactive)	72.4 µM (inactive)	> 100 µM (inactive)		> 100 µM (inactive)	> 100 µM (inactive)	> 100 µM (inactive)	> 100 µM (inactive)		> 100 µM (inactive)	> 100 µM (inactive)	25 µM (inactive)	> 100 µM (inactive)				> 100 µM (inactive)	> 100 µM (inactive)
